In patent EP0989125B1, “Pesticidal furylmethyl cyclopropanecarboxylates” (Sumitomo Chemical Company, Limited, priority 1998, dated 2000):

System: webbing clothes moth (Tineola bisselliella)
Assay: Biological test 14: persistence of treated filter paper in cardboard box, webbing clothes moth larvae
Assay type: in vivo
Parameters: key to degree of damage: -: no damage; +: slight damage; ++: heavy damage; +++: severe damage
Conditions: 36 mg on filter paper
Experimental: A filter paper (3.2 cm × 3.2 cm in size) treated with 36 mg of each of the present compounds and two wool muslin fabrics (25 cm × 25 cm in size) were hung down at the upper part of a corrugated cardboard box (29 cm × 29 cm × 29 cm in size). After standing at 25 °C and a humidity of 60 % for 1 week, two tea-strainer balls holding 7 to 10 middle instar larvae of webbing clothes moth (Tineola bisselliella) and one piece of wool muslin cloth (2 cm × 2 cm in size) were hung down at the upper part of the box. The box was closed with a lid. After one week, the box was opened, and the percent moribund and the degree of damage of the wool muslin cloth by the moths were examined. The same tests was repeated 2 weeks, 3 weeks and 5 weeks after the treatment to examine the persistance of the present compound. The degree of damage was represented by "-" in no damage, " + " in slight damage, " ++ " in heavy damage and "+++ " in severe damage.

## CC1(C)C(/C=C(\Cl)C(F)(F)F)C1C(=O)OCc1ccc(C(F)F)o1 (centres unmarked) [B, reference compound]
After 1 week
  degree of damage: +++
  percent moribund: 50%
After 2 weeks
  degree of damage: +++
  percent moribund: 33%
After 3 weeks
  degree of damage: +++
  percent moribund: 53%
After 5 weeks
  degree of damage: +++
  percent moribund: 42%
